Measurements reported in patent publication US9266872B2, “2-hydroxyarylamide derivative or pharmaceutically acceptable salt thereof, preparation method thereof, and pharmaceutical composition for preventing or treating cancer containing same as active ingredient” (KOREA RESEARCH INSTITUTE OF BIOSCIENCE AND BIOTECHNOLOGY, priority 2011, dated 2016).

Biological target: T1, TMPRSS4 serine protease (Homo sapiens, UniProt Q9NRS4)
T1 construct: TMPRSS4 serine protease domain (205th Val˜437th Leu) was cloned in pET21b/NdeI-XhoI; inferred from pET21b XhoI cloning and Ni-NTA purification) (C); made in house; host or cells: E. coli BL21 (DE3)
Experiment: Inhibitory effect on TMPRSS4 serine protease activity using peptide substrate
Format: biochemical
Settings: kallikrein peptide substrate 100 μM, DMSO negative control; for Intracellular protease activity Inhibition % 10 uM / inhibition at 10 µM: 10 uM compound; for inhibition at 10 µM: read-out: Intracellular protease activity Inhibition % 10 uM; for inhibition at 30 µM: 30 uM compound, read-out: Intracellular protease activity Inhibition % 30 uM; for inhibition at 100 µM: 100 uM compound, read-out: Intracellular protease activity Inhibition % 100 uM
Protocol: TMPRSS4 serine protease domain (205th Val˜437th Leu) was cloned in pET21b/NdeI-XhoI, which was introduced in E. coli BL21 (DE3). At this time, FlagX2-enterokinase cleavage site ([…]; total 15 amino acids) was inserted in N-terminal of TMPRSS4 serine protease domain as shown in FIG. 1. The forward and reverse primers for PCR used for the cloning were presented by SEQ. ID. NO: 1 and NO: 2.
The cells were cultured in 10 ml of LB containing ampicillin at 37° C. overnight. IL of LB+ampicillin was added thereto, followed by further culture until OD reached 0.6˜0.8. 0.1 mM IPTG was added thereto, followed by further culture for 16 hours. Cell pellet was obtained, purified by Ni-NTA (Qiagen), and dialyzed. TMPRSS4 serine protease (pro-form) labeled with 2 mg of 2Xflag-enterokinase cleavage site was conjugated to Ni-NTA resin (4°, overnight). Enterokinase (NEB) was treated thereto at the concentration of 0.0002%/w/w at room temperature for 5 hours. The sample was washed, eluted with 50 mM imidazole in 20 mM of sodium phosphate buffer, and then dialyzed.
The protein activity was evaluated by measuring fluorescence shown during hydrolysis of the peptide. […] Reaction was induced after adding 100 μM of the peptide substrate into reaction buffer (50 mM Tris-HCl (pH 8.0), 10 mM CaCl2, 1 μM ZnCl2). Then, fluorescence was measured at 5 minutes interval (excitation 385 nm, emission 455 nm).
Then, fluorescence (excitation 385 nm/emission 455 nm) was measured at 5 minutes interval for 150 minutes. […] Dimethylsulfoxide (DMSO) was used as the negative control.

T1 sequence (Q9NRS4 205-437): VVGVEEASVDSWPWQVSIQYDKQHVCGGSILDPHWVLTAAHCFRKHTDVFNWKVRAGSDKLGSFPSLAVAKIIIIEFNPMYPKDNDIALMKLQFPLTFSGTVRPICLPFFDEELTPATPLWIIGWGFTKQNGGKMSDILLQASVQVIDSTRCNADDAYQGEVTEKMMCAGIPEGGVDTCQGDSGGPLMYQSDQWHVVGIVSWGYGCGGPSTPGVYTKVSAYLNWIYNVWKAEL

| SMILES | Intracellular protease activity Inhibition % 10 uM | inhibition at 10 µM | inhibition at 30 µM | inhibition at 100 µM |
| --- | --- | --- | --- | --- |
| O=C(NCc1cc(C(F)(F)F)cc(C(F)(F)F)c1)c1cc(Cl)ccc1O [Example 24, N-(3,5-bis-trifluoromethyl-benzyl)-5-chloro-2-hydroxy-benzamide] |  | 36% | 63% |  |
| O=C(Nc1cc(C(F)(F)F)cc(C(F)(F)F)c1)c1cccc(Cl)c1O [Example 26, N-(3,5-bis-trifluoromethyl-phenyl)-3-chloro-2-hydroxy-benzamide] | 61% | 51 to 100% | 93% |  |
| O=C(Nc1cc(C(F)(F)F)cc(C(F)(F)F)c1Cl)c1cc(Cl)ccc1O [Example 29, 5-chloro-N-(2-chloro-3,5-bis-trifluoromethyl-phenyl)-2-hydroxy-benzamide] |  | 43% | 100% |  |
| O=C(Nc1cc(C(F)(F)F)cc(C(F)(F)F)c1)c1cc(-c2ccc(F)cc2F)ccc1O [Example 30] |  | 5% | 31% |  |
| Nc1ccc(O)c(C(=O)Nc2cc(C(F)(F)F)cc(C(F)(F)F)c2)c1 [Example 31, 5-amino-N-(3,5-bis(trifluoromethyl)phenyl)-2-hydroxybenzamide] |  | 3% | 30% |  |
| Cc1cc(Cl)cc(C(=O)Nc2cc(C(F)(F)F)cc(C(F)(F)F)c2)c1O [Example 34, N-(3,5-bis(trifluoromethyl)phenyl)-5-chloro-2-hydroxy-3-methylbenzamide] |  | 33% | 78% |  |
| CC(=O)Nc1ccc(O)c(C(=O)Nc2cc(C(F)(F)F)cc(C(F)(F)F)c2)c1 [Example 35, 5-acetamido-N-(3,5-bis(trifluoromethyl)phenyl)-2-hydroxybenzamide] |  | 0% | 0% |  |
| NC(=O)c1ccc(O)c(C(=O)Nc2cc(C(F)(F)F)cc(C(F)(F)F)c2)c1 [Example 38, N^3-(3,5-bis-trifluoromethyl-phenyl)-4-hydroxy-isophthalamide] |  | 0% | 21% |  |
| O=C(Nc1ccc(C(F)(F)F)cn1)c1cc(Cl)ccc1O [Example 41, 5-chloro-2-hydroxy-N-(5-(trifluoromethyl)pyridine-2-yl)benzamide] |  |  | 25% | 47% |
| O=C(Nc1c(F)c(F)nc(F)c1F)c1cc(Cl)ccc1O [Example 43, 5-chloro-2-hydroxy-N-(perfluoropyridine-4-yl)benzamide] |  |  | 31% | 51% |
| O=C(Nc1ncc(C(F)(F)F)cc1Cl)c1cc(Cl)ccc1O [Example 46, 5-chloro-N-(3-chloro-5-(trifluoromethyl)pyridine-2-yl)-2-hydroxybenzamide] |  |  | 0% | 0% |
| O=C(Nc1nc(C(F)(F)F)cs1)c1cc(Cl)ccc1O [Example 52, 5-chloro-2-hydroxy-N-(4-(trifluoromethyl)thiazole-2-yl)benzamide] |  |  | 61% | 100% |
| O=C(Nc1cc(C(F)(F)F)cc(C(F)(F)F)c1)c1ccc(Cl)cc1O [Example 54, N-(3,5-bis(trifluoromethyl)phenyl)-4-chloro-2-hydroxybenzamide] |  | 29% | 74% |  |
| N#Cc1ccc(O)c(C(=O)Nc2cc(C(F)(F)F)cc(C(F)(F)F)c2)c1 [Example 56, N-(3,5-bis(trifluoromethyl)phenyl)-5-cyano-2-hydroxybenzamide] |  | 15% | 53% |  |
| CC(=O)Oc1ccc(Cl)cc1C(=O)Nc1cc(C(F)(F)F)cc(C(F)(F)F)c1 [Example 57, 2-(3,5-bis(trifluoromethyl)phenylcarbamoyl)-4-chlorophenylacetate] |  | 0% | 4% |  |
| O=C(Nc1cc(C(F)(F)F)cc(C(F)(F)F)c1)c1cc(Cl)ccc1OCc1ccccc1 [Example 58, 2-benzyloxy-N-(3,5-bis-trifluoromethyl-phenyl)-5-chlorobenzamide] |  | 0% | 6% |  |

Next, values leading:

| Intracellular protease activity Inhibition % 10 uM | inhibition at 10 µM | inhibition at 30 µM | inhibition at 100 µM | SMILES |
| --- | --- | --- | --- | --- |
| 64% | 51 to 100% | 99% | 100% | O=C(Nc1cc(C(F)(F)F)ccc1Cl)c1cc(Cl)ccc1O [Example 23, 5-chloro-N-(2-chloro-5-(trifluoromethyl)phenyl)-2-hydroxybenzamide] |
| 56% | 51 to 100% | 80% |  | COc1c(C(F)(F)F)cc(NC(=O)c2cc(Cl)ccc2O)cc1C(F)(F)F [Example 39, 5-chloro-2-hydroxy-N-(4-methoxy-3,5-bis-trifluoromethyl-phenyl)-benzamide] |
|  |  | 0% | 11% | O=C(Nc1ccccn1)c1cc(Cl)ccc1O [Example 40, 5-chloro-2-hydroxy-N-(pyridine-2-yl)benzamide] |
|  |  | 14% | 55% | O=C(Nc1ccc(Cl)cn1)c1cc(Cl)ccc1O [Example 42, 5-chloro-N-(5-chloropyridine-2-yl)-2-hydroxybenzamide] |
|  |  | 6% | 39% | O=C(Nc1ccc(Cl)nc1)c1cc(Cl)ccc1O [Example 45, 5-chloro-N-(6-chloropyridine-3-yl)-2-hydroxybenzamide] |
|  |  | 35% | 21% | O=C(Nc1ccnc(Cl)c1)c1cc(Cl)ccc1O [Example 47, 5-chloro-N-(2-chloropyridine-4-yl)-2-hydroxybenzamide] |
|  |  | 0% | 0% | Cc1cc(C)nc(NC(=O)c2cc(Cl)ccc2O)n1 [Example 48, 5-chloro-N-(4,6-dimethylpyrimidine-2-yl)-2-hydroxybenzamide] |
|  |  | 0% | 2% | O=C(Nc1ncccn1)c1cc(Cl)ccc1O [Example 49, 5-chloro-2-hydroxy-N-(pyrimidine-2-yl)benzamide] |
|  |  | 0% | 67% | Cc1csc(NC(=O)c2cc(Cl)ccc2O)n1 [Example 50, 5-chloro-2-hydroxy-N-(4-methylthiazole-2-yl)benzamide] |
|  |  | 44% | 90% | O=C(Nc1nccs1)c1cc(Cl)ccc1O [Example 51, 5-chloro-2-hydroxy-N-(thiazole-2-yl)benzamide] |
|  |  | 13% | 75% | O=C(Nc1ccccc1)c1cc(Cl)ccc1O [Example 59, 5-chloro-2-hydroxy-N-phenylbenzamide] |
|  |  | 44% | 56% | Cc1cc(C)cc(NC(=O)c2cc(Cl)ccc2O)c1 [Example 60, 5-chloro-N-(3,5-dimethylphenyl)-2-hydroxybenzamide] |
|  | 15% | 58% |  | O=C(Nc1cc(Cl)cc(Cl)c1)c1cc(Cl)ccc1O [Example 61, 5-chloro-N-(3,5-dichlorophenyl)-2-hydroxybenzamide] |
|  | 37% | 59% |  | O=C(Nc1ccc(C(F)(F)F)c(C(F)(F)F)c1)c1cc(Cl)ccc1O [Example 62, N-(3,4-bis(trifluoromethyl)phenyl)-5-chloro-2-hydroxybenzamide] |
